Results reported in ChEMBL document CHEMBL1145652, “Plant anticancer agents. XXVI. Constituents of Peddiea fischeri” (1983).
≈ marks a conversion by molar mass, not a printed value. Calls of active or inactive are those of the source. The rule behind the calls is not given here.

Experiments:
[1] = tested on: P388; assay: Cytotoxicity against mouse P388 cells; type: functional; settings: read-out: ED50 (the source's name)
[2] = tested on: P388; assay: In vivo antitumor activity against mouse P388 cells at 2.2 to 17.5 mg/kg; type: functional, organism-based
[3] = tested on: P388; assay: In vivo antitumor activity against mouse P388 cells at 1.4 to 11.4 mg/kg; type: functional, organism-based

`COC1=CC(=O)C=C(OC)C1=O` [2,6-DIMETHOXYQUINONE] was tested, and the EC50 [1] was 0.0015 µg/mL (≈ 0.00892 µM).

For `O=c1ccc2ccc(O)cc2o1` [UMBELLIFERONE], the EC50 [1] was 0.4 µg/mL (≈ 2.47 µM), the Activity [2] was “inactive” and the Activity [3] was “inactive”.

For `COc1cc2cc(Oc3ccc4ccc(=O)oc4c3)c(=O)oc2cc1O` [DAPHNORETIN], the EC50 [1] was 2.2 µg/mL (≈ 6.24 µM), the Activity [2] was “inactive” and the Activity [3] was “inactive”.
